Test results: patent US10202371B2, “Oxazolidin-2-one-pyrimidine derivatives and the use thereof as phosphatidylinositol-3-kinase inhibitors” (Novartis AG, priority 2012, dated 2019)
Where two headings read alike, the source gives them in different places.

Key:
[1] = tested on: HaCaT keratinocyte cell line; test: BrdU cell proliferation assay HaCaT keratinocytes; assay type: cell-based; settings: Homo sapiens, BrdU incorporation
Method: Cells of SCC or keratinocyte lines (Detroit562, SCC12B2, SCL1, HaCaT) were used for the proliferation assays when they had reached about 80% to 90% confluency. Cells were then harvested after trypsin-mediated dislodgement from culture flasks, washed in culture medium containing 10% FCS, counted in a hemocytometer and diluted complete culture medium with 5% FCS to obtain a cell density of 5×10^4 cells/ml. 100 μl of this cell suspension (e.g. 5000 cells) were transferred into each well of a 96-well white walled tissue culture plate (Corning-Costar article #3917). Cells were then allowed to settle by placing them in the CO2 incubator for 45 to 60 minutes. Subsequently, a volume of 100 μl of culture medium containing twice the desired final concentration of the test compound was added to each well of quadruplicate wells. […] The cell proliferation was determined on the basis of incorporation of bromodesoxy-uridin (BrdU) into cellular DNA using the chemiluminescent BrdU Cell Proliferation ELISA (Roche article #11 669 915 001). […] Incorporation of BrdU into the DNA was detected by BrdU-specific antibodies and quantified on the basis of an antibody-coupled luciferase mediated signal generation. The luminescence emission was measured in a Victor light 1420 Luminescence counter, (Perkin Elmer) and expressed as relative luminescence units (e.g. data points given as RLU/s) per second. […]

SCL-1 cells = test: BrdU cell proliferation assay SCL-1; assay type: cell-based; settings: Homo sapiens, BrdU incorporation
Source text: The SCL-1 and SCC12B2 are human cutaneous squamous cell carcinoma (SCC) cell lines derived from naturally occurring, poorly differentiated SCCs. The SCL-1 cell line was originally established in the lab of N. Fusenig at the Cancer Research Center in Heidelberg, and its growth characteristics in vitro in comparison to normal keratinocytes were described previously (Neely et al 1991). The SCC12B2 cell line was established as described previously (Rheinwald & Beckett 1981) from the facial skin of a transplant patient who received immunosuppressive therapy for 7 years. The human SCC cell line Detroit562 was obtained from American Tissue Culture Collection (ATCC). Detroit562 is referred to as Head & Neck squamous cell carcinomas (HNSCC) and was derived from a pharyngeal SCC tumor. […]
Cells of SCC or keratinocyte lines (Detroit562, SCC12B2, SCL1, HaCaT) were used for the proliferation assays when they had reached about 80% to 90% confluency. Cells were then harvested after trypsin-mediated dislodgement from culture flasks, washed in culture medium containing 10% FCS, counted in a hemocytometer and diluted complete culture medium with 5% FCS to obtain a cell density of 5×10^4 cells/ml. […] The cell proliferation was determined on the basis of incorporation of bromodesoxy-uridin (BrdU) into cellular DNA using the chemiluminescent BrdU Cell Proliferation ELISA (Roche article #11 669 915 001). […]

Molecule `C[C@H]1[C@H](c2nccs2)OC(=O)N1c1cc(-c2cnc(N)nc2C(F)(F)F)nc(N2CCOCC2)n1` [Example 1, (4S,5R)-3-(2′-Amino-2-morpholin-4-yl-4′-trifluoromethyl-[4,5′]bipyrimidinyl-6-yl)-4-methyl-5-thiazol-2-yl-oxazolidin-2-one] has an IC50 ([1]; measurement #1, read-out: anti-proliferative IC50 HaCaT measurement #1) of 282 nM, an IC50 ([1]; measurement #2, read-out: anti-proliferative IC50 HaCaT measurement #2) of 298 nM and an IC50 (SCL-1 cells; measurement #1, read-out: anti-proliferative IC50 SCL-1 measurement #1) of 351 nM. It also gave an IC50 (SCL-1 cells; measurement #2, read-out: anti-proliferative IC50 SCL-1 measurement #2) of 268 nM.
